Converted amounts (≈) assume the structure as drawn. “And” between values parts separate entries of the source, which are not always exact repeats. Equal entries are not always repeated. One block for each compound: values may come before it.
Experiments:
Experiment in all cases: ≥ marks a high value that may be exact or a test limit, other limits are often not marked, values filed in µg/mL are converted to µM
[1] = test system: Pseudomonas aeruginosa 5167
[2] = test system: Pseudomonas aeruginosa 1570
[3] = test system: Proteus vulgaris KCTC 2433
[4] = test system: Bacillus subtilis KCTC 1998
[5] = test system: Escherichia coli CCARM 1238
[6] = test system: Staphylococcus aureus ATCC 29213
[7] = test system: Listeria monocytogenes ATCC 3710
[8] = test system: Staphylococcus epidermidis ATCC 12228
[9] = test system: Pseudomonas aeruginosa 4007
[10] = test system: Staphylococcus aureus 3518
[11] = test system: Pseudomonas aeruginosa 3543
[12] = test system: Pseudomonas aeruginosa ATCC 15692
[13] = test system: Escherichia coli ATCC 25922
[14] = test system: Klebsiella oxytoca AB2010143
[15] = test system: Salmonella enterica AB2010185
Pseudomonas fluorescens = test system: Pseudomonas fluorescens
[16] = test system: Escherichia coli DH5alpha
[17] = test system: Staphylococcus aureus AB94004
[18] = test system: Enterobacter cloacae AB2010162
Pseudomonas putida = test system: Pseudomonas putida
[19] = test system: Bacillus magaterium AB90008
[20] = test system: Micrococcus luteus AB2010179
[21] = test system: Bacillus subtilis ATCC 23857
[22] = test system: Bacillus cereus ATCC 14579
[23] = test system: Cryptococcus neoformans ATCC 28957
[24] = test system: Pectobacterium carotovorum
[25] = test system: Staphylococcus aureus ATCC 25923
[26] = test system: Pseudomonas aeruginosa ATCC 27853
[27] = test system: Xanthomonas campestris pv. citri
[28] = test system: Fusarium oxysporum f.sp. vasinfectum
Trichoderma asperellum = test system: Trichoderma asperellum
Fusarium solani = test system: Fusarium solani
[29] = test system: Candida albicans ATCC 90028
Fusarium oxysporum = test system: Fusarium oxysporum
Ramulariopsis gossypii = test system: Ramulariopsis gossypii
[30] = test system: Pseudomonas syringae pv. tabaci
[31] = test system: Candida albicans ATCC 10231
[32] = test system: Saccharomyces cerevisiae SZMC 0644
Candida krusei CBS 573 = test system: Candida krusei CBS 573
[33] = test system: Candida parapsilosis CBS 604
[34] = test system: Fusarium oxysporum f. sp. lycopersici ATCC 201829
[35] = test system: Aspergillus niger CECT 2694
[36] = test system: Penicillium expansum EPS 26
[37] = test system: Rhizopus stolonifer CECT 2344
[38] = test system: Candida albicans ATCC 64550
[39] = test system: Pseudomonas syringae EPS 94
[40] = test system: Erwinia amylovora PMV 6076
[41] = test system: Saccharomyces cerevisiae FY1679
[42] = test system: Penicillium digitatum PHI-26
[43] = test system: Xanthomonas vesicatoria 2133-2
[44] = test system: Staphylococcus aureus LAC

- MIC [1]: ≥ 42.8 µM
- MIC [2]: 10.7 µM (≈ 11.3 µg/mL)
SMILES: CC(C)C[C@H](NC(=O)[C@H](CC(C)C)NC(=O)[C@H](CCCCN)NC(=O)[C@H](CCCCN)NC(=O)[C@H](CC(C)C)NC(=O)[C@H](CC(C)C)NC(=O)[C@H](C)NC(=O)[C@H](CC(C)C)NC(=O)[C@@H](N)Cc1ccccc1)C(N)=O [FLALLKKLL]

- MIC [3]: 4 µM and 8 µM
- MIC [4]: 4 µM (≈ 10.1 µg/mL)
- MIC [5]: 2 µM (≈ 5.04 µg/mL)
- MIC [6]: 8 µM (≈ 20.2 µg/mL)
- MIC [7]: 4 µM (≈ 10.1 µg/mL)
- MIC [8]: 4 µM and 8 µM
- MIC [9]: 2 µM (≈ 5.04 µg/mL)
- MIC [10]: 8 µM (≈ 20.2 µg/mL)
- MIC [11]: 4 µM (≈ 10.1 µg/mL)
- MIC [12]: ≥ 32 µM
- MIC [13]: 2 µM and 4 µM
SMILES: CC[C@H](C)[C@H](NC(=O)[C@H](Cc1ccccc1)NC(=O)[C@H](CCCN=C(N)N)NC(=O)[C@H](CC(C)C)NC(=O)[C@@H](N)Cc1ccccc1)C(=O)NCC(=O)N[C@@H](CO)C(=O)N[C@H](C(=O)N[C@@H](CCCCN)C(=O)N[C@@H](Cc1cnc[nH]1)C(=O)NCC(=O)N[C@@H](CCCCN)C(=O)NCC(=O)N[C@@H](Cc1cnc[nH]1)C(=O)N[C@@H](CC(C)C)C(=O)N[C@H](C(=O)N[C@@H](Cc1cnc[nH]1)C(=O)N[C@@H](Cc1cnc[nH]1)C(=O)N[C@H](C(=O)NCC(=O)N[C@H](C(=O)N[C@@H](C)C(=O)N[C@@H](CC(C)C)C(N)=O)C(C)C)[C@@H](C)CC)C(C)C)C(C)C [FLRFIGSVKHGKGHLVHHIGVAL]

- MIC [14]: ≥ 45 µM
- MIC [15]: ≥ 40 µM
- MIC (Pseudomonas fluorescens): ≥ 50.5 µM
- MIC [16]: ≥ 40 µM
- MIC [17]: 6.9 µM (≈ 15.2 µg/mL)
- MIC [18]: ≥ 45 µM
- MIC (Pseudomonas putida): ≥ 35 µM
- MIC [19]: 1.5 µM (≈ 3.31 µg/mL)
- MIC [20]: 1.5 µM (≈ 3.31 µg/mL)
SMILES: CC[C@H](C)[C@H](NC(=O)[C@H](CC(C)C)NC(=O)[C@H](CCCCN)NC(=O)[C@H](CC(C)C)NC(=O)[C@H](C)NC(=O)CNC(=O)[C@H](CCCCN)NC(=O)[C@H](C)NC(=O)[C@H](CC(C)C)NC(=O)[C@H](C)NC(=O)CNC(=O)[C@H](Cc1c[nH]c2ccccc12)NC(=O)[C@@H](N)Cc1ccccc1)C(=O)N1CCC[C@H]1C(=O)N[C@@H](CO)C(=O)N[C@@H](CC(C)C)C(=O)N[C@H](C(=O)N[C@@H](CO)C(=O)N[C@@H](CO)C(=O)N[C@@H](Cc1ccccc1)C(=O)N[C@H](C(N)=O)[C@@H](C)O)C(C)C [FWGALAKGALKLIPSLVSSFT]

- MIC [21]: 16 µM (≈ 36.4 µg/mL)
- MIC [22]: ≥ 64 µM
- MIC [23]: 10.7 µM (≈ 24.3 µg/mL)
- MIC [24]: ≥ 128 µM
- MIC [25]: 13.3 µM (≈ 30.3 µg/mL)
- MIC [26]: 26.7 µM (≈ 60.7 µg/mL)
- MIC [27]: ≥ 64 µM
- MIC [28]: 16 µM (≈ 36.4 µg/mL)
- MIC (Trichoderma asperellum): 6.67 µM (≈ 15.2 µg/mL)
- MIC (Fusarium solani): ≥ 32 µM
- MIC [29]: 4 µM (≈ 9.1 µg/mL)
- MIC (Fusarium oxysporum): 16 µM (≈ 36.4 µg/mL)
- MIC (Ramulariopsis gossypii): 4 µM (≈ 9.1 µg/mL)
- MIC [30]: 16 µM (≈ 36.4 µg/mL)
- MIC [13]: 32 µM (≈ 72.8 µg/mL)
SMILES: CSCC[C@H](NC(=O)[C@H](Cc1ccccc1)NC(=O)CNC(=O)[C@H](Cc1cnc[nH]1)NC(=O)[C@H](CC(C)C)NC(=O)[C@H](CO)NC(=O)CN)C(=O)N[C@@H](Cc1ccc(O)cc1)C(=O)N[C@@H](CCCCN)C(=O)N[C@@H](Cc1ccc(O)cc1)C(=O)N[C@@H](CC(C)C)C(=O)N[C@@H](CCCCN)C(=O)N[C@@H](CC(N)=O)C(=O)N[C@@H](CCSC)C(=O)N[C@H](C(=O)N[C@@H](CC(C)C)C(=O)N[C@@H](CC(N)=O)C(=O)N[C@@H](CC(C)C)C(=O)N[C@@H](Cc1ccccc1)C(N)=O)C(C)C [GSLHGFMYKYLKNMVLNLF]

- MIC [31]: 20.3 µM (≈ 49.9 µg/mL)
- MIC [32]: 20.3 µM (≈ 49.9 µg/mL)
- MIC (Candida krusei CBS 573): 20.3 µM (≈ 49.9 µg/mL)
- MIC [33]: 20.3 µM (≈ 49.9 µg/mL)
SMILES: CC[C@H](C)[C@H](N)C(=O)N[C@@H](C)C(=O)N[C@H](C(=O)N[C@@H](CO)C(=O)N1CCC[C@H]1C(=O)N[C@@H](Cc1ccc(O)cc1)C(=O)N[C@@H](Cc1ccc(O)cc1)C(=O)N[C@@H](C)C(=O)N[C@H]1CSSC[C@@H](C(=O)O)NC(=O)CNC(=O)[C@H](CO)NC(=O)CNC(=O)[C@H](CCCCN)NC(=O)[C@H](CCCCN)NC(=O)[C@H](Cc2cnc[nH]2)NC(=O)[C@H](CCCCN)NC(=O)[C@@H]2CSSC[C@H](NC(=O)[C@H](CC(N)=O)NC1=O)C(=O)N1CCC[C@H]1C(=O)N[C@@H](CC(N)=O)C(=O)N[C@@H](CC(N)=O)C(=O)N2)[C@@H](C)O [IATSPYYACNCPNNCKHKKGSGC]

- MIC [34]: 0.849 µM (≈ 1.19 µg/mL)
- MIC [35]: 22.4 µM (≈ 31.4 µg/mL)
- MIC [36]: ≥ 35.4 µM
- MIC [16]: 4 µM (≈ 5.62 µg/mL)
- MIC [37]: ≥ 35.4 µM
- MIC [38]: 25 µM (≈ 35.1 µg/mL)
- MIC [39]: 3.16 µM (≈ 4.44 µg/mL)
- MIC [40]: 3.16 µM (≈ 4.44 µg/mL)
- MIC [41]: 16 µM (≈ 22.5 µg/mL)
- MIC [42]: 4 µM (≈ 5.62 µg/mL)
- MIC [43]: 3.16 µM (≈ 4.44 µg/mL)
SMILES: CC[C@H](C)[C@H](NC(=O)[C@H](CCCCN)NC(=O)[C@H](CCCCN)NC(=O)[C@H](Cc1ccccc1)NC(=O)[C@H](CC(C)C)NC(=O)[C@H](CCCCN)NC(=O)[C@@H](N)CCCCN)C(=O)N[C@@H](CC(C)C)C(=O)N[C@@H](CCCCN)C(=O)N[C@@H](Cc1ccccc1)C(=O)N[C@@H](CC(C)C)C(N)=O [KKLFKKILKFL]

- MIC [44]: ≥ 117 µM
- MIC [13]: > 117 µM
SMILES: CC(C)C[C@H](NC(=O)[C@H](CC(C)C)NC(=O)[C@H](CC(C)C)NC(=O)[C@@H](N)CC(C)C)C(=O)N[C@@H](CCCN=C(N)N)C(=O)N[C@@H](CCCN=C(N)N)C(=O)N[C@@H](CCCN=C(N)N)C(=O)N[C@@H](CCCN=C(N)N)C(=O)O [LLLLRRRR]
